Assay results taken from US12491220B2, “Compositions containing indole-derived metabolites and methods of use thereof” (Imvela Corp., priority 2024, dated 2025).

Experiments:
AhR [1] = molecular target: T1, AhR (Homo sapiens, UniProt P35869); assay: AhR activation in human cell line expressing AhR, in vitro luminescence (Example 1); assay type: cell-based; conditions: 200 PM, FIG. 5, normalized to methylcholanthrene
T1 sequence (P35869 11-848): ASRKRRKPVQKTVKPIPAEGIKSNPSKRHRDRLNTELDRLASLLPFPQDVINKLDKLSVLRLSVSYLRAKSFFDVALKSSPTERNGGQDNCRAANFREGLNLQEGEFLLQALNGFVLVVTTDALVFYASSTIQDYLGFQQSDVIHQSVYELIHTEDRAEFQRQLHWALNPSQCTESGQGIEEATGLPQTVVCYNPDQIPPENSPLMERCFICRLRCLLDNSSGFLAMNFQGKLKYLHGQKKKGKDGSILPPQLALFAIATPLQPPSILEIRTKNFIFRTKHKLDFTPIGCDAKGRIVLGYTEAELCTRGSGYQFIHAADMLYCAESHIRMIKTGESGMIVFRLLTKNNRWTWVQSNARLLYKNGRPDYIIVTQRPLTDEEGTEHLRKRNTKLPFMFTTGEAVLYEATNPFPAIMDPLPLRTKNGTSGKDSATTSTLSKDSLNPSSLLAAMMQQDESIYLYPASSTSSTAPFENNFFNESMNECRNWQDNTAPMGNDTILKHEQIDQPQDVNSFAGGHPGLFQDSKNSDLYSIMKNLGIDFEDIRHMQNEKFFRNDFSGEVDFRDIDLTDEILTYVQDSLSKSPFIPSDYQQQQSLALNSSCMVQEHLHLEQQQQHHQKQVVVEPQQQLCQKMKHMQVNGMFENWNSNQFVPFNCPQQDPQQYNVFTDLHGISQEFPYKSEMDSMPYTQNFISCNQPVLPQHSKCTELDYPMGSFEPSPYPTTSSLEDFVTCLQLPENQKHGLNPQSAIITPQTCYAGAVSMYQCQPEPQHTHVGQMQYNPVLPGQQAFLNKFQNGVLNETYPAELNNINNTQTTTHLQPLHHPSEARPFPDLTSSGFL
Experimental: (§1) The utility of ILA and IAld in multiple host was validated by an in vitro assay. Human or canine cell lines expressing AhR were exposed to ILA or IAld at […], and AhR activation was assayed using in vitro luminescence.

AhR [2] = molecular target: T2, AhR (Canis lupus familiaris, UniProt A0A8I3RSX6); assay: AhR activation in canine cell line expressing AhR, in vitro luminescence (Example 1); assay type: cell-based; conditions: 200 PM, FIG. 5, normalized to methylcholanthrene
T2 sequence (A0A8I3RSX6 1-853): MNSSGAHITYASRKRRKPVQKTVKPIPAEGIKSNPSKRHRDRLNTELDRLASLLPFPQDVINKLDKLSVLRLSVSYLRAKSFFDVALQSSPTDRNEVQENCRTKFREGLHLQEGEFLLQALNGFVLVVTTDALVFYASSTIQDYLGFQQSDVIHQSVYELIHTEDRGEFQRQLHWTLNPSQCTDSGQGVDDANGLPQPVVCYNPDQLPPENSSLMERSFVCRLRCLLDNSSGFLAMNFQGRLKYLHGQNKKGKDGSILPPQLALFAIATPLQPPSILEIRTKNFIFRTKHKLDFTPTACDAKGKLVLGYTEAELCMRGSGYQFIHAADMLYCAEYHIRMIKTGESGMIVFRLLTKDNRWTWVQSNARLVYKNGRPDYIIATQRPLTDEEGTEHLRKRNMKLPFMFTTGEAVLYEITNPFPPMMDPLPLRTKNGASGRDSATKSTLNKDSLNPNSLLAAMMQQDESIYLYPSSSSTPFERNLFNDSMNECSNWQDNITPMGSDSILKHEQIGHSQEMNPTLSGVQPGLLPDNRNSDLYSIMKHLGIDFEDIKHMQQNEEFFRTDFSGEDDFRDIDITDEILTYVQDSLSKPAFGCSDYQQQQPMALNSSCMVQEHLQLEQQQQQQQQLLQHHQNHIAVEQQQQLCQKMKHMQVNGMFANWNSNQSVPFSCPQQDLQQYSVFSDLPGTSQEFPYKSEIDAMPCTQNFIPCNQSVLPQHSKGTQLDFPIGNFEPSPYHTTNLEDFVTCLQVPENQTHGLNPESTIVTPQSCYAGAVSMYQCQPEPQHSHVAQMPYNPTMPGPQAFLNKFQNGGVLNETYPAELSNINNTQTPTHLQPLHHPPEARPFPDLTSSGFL
Experimental: as §1

| SMILES | AhR activation (AhR [1]) | AhR activation (AhR [2]) |
| --- | --- | --- |
| O=Cc1c[nH]c2ccccc12 [IAld, indole-3-carboxaldehyde] | AhR activation was observed | AhR activation was observed |
| O=C(O)C(O)Cc1c[nH]c2ccccc12 (stereo not shown) [ILA, indole-3-lactic acid] | AhR activation was observed | AhR activation was observed |
